Literature values as cited in patent US20180271826A1, “DRY POWDERS OF CANNABINOIDS AND METHODS FOR PREPARING DRY POWDERS” (COLORADO CAN LLC, priority 2017, published 2018).

Experiments:
[1] = cannabis resin, 4 years, 4° C. in the dark (Trofin 2012)
[2] = burning of cannabis cigarettes (Elzinga 2015)
[3] = plant material, room temperature (20° C.) near a source of light, a little under two years (Fairbarn 1976)
[4] = oral ingestion (Ohlsson 1980)
[5] = transdermal patch (Stinchcomb 2004)

SMILES	original content degraded [1] [%]	theoretically present amount recovered in total smoke and remaining ash [2] [%]	original THC content remaining [3] [%]	time of peak THC concentrations after dosing [4] [h]	peak THC concentration [5] [ng/mL]	time of peak THC concentration [5] [h]
C=C(C)[C@@H]1CCC(C)=C[C@H]1c1c(O)cc(CCCCC)cc1O [CBD, cannabidiol]	55.75	38.4	–	–	–	–
CCCCCc1cc(O)c2c(c1)OC(C)(C)[C@@H]1CCC(C)=C[C@@H]21 [THC, Δ9-tetrahydrocannabinol]	95.77	36.9	37	1 to 5	4.4	1.4
